# Measurements as given in publication PMC10620772, “Design, synthesis, and biological evaluation of new pyrimidine-5-carbonitrile derivatives as novel anti-cancer, dual EGFR^WT/COX-2 inhibitors with docking studies” (RSC Advances, 2023).
# Experiments:
# Test in all cases: NCI60 antitumor screening
# Type in all cases: cell-based, human
# HCT-116 = test system: HCT-116
# HOP-62 = test system: HOP-62
# NCI/ADR-RES = test system: NCI/ADR-RES
# DU-145 = test system: DU-145
# EKVX = test system: EKVX
# HL-60(TB) = test system: HL-60(TB)
# SNB-75 = test system: SNB-75
# LOX IMVI = test system: LOX IMVI
# PC-3 = test system: PC-3
# A498 = test system: A498
# CCRF-CEM = test system: CCRF-CEM
# HCC-2998 = test system: HCC-2998
# SNB-19 = test system: SNB-19
# ACHN = test system: ACHN
# UO-31 = test system: UO-31
# RXF 393 = test system: RXF 393
# IGROV1 = test system: IGROV1
structure (smiles),measurement,setting,value
"N#Cc1c(-c2ccc(F)cc2)nc(SCc2ccc(F)cc2)nc1N1CCNCC1 [4f, 2-((4-Fluorobenzyl)thio)-4-(4-fluorophenyl)-6-(piperazin-1-yl) pyrimidine-5-carbonitrile]",inhibition at 10 µM,"HCT-116; Homo sapiens, 10 μM single dose, HCT-116 (colon cancer), read-out: growth inhibition percent (GI%)",> 100%
same,TGI,HCT-116; five-dose,15.60 µM
same,GI50,"HOP-62; Homo sapiens, HOP-62, five-dose",17 µM
same,CC50,"HOP-62; Homo sapiens, HOP-62, five-dose, read-out: LC50 (the source's name)",65.8 µM
same,inhibition at 10 µM,"HOP-62; Homo sapiens, 10 μM single dose, HOP-62 (non-small cell lung cancer), read-out: growth inhibition percent (GI%)",> 100%
same,TGI,HOP-62; five-dose,33.40 µM
same,GI50,"NCI/ADR-RES; Homo sapiens, NCI/ADR-RES, five-dose",13.7 µM
same,CC50,"NCI/ADR-RES; Homo sapiens, NCI/ADR-RES, five-dose, read-out: LC50 (the source's name)",67.5 µM
same,inhibition at 10 µM,"NCI/ADR-RES; Homo sapiens, 10 μM single dose, NCI/ADR-RES (ovarian cancer), read-out: growth inhibition percent (GI%)",> 100%
same,TGI,NCI/ADR-RES; five-dose,30.40 µM
same,GI50,"DU-145; Homo sapiens, DU-145, five-dose",16.8 µM
same,CC50,"DU-145; Homo sapiens, DU-145, five-dose, read-out: LC50 (the source's name)",58.1 µM
same,inhibition at 10 µM,"DU-145; Homo sapiens, DU-145, read-out: growth inhibition percent (GI%)",> 100%
same,TGI,DU-145; five-dose,31.30 µM
same,GI%,EKVX; 10 μM one-dose,98.71%
same,GI50,"EKVX; Homo sapiens, EKVX, five-dose",13.1 µM
same,LC50,"EKVX; Homo sapiens, EKVX, five-dose",52.9 µM
same,inhibition at 10 µM,"EKVX; Homo sapiens, 10 μM single dose, EKVX (non-small cell lung cancer), read-out: growth inhibition percent (GI%)",98.7%
same,TGI,EKVX; five-dose,26.40 µM
same,GI50,"HL-60(TB); Homo sapiens, HL-60, five-dose",7.66 µM
same,CC50,"HL-60(TB); Homo sapiens, HL-60, five-dose, read-out: LC50 (the source's name)",63.8 µM
same,inhibition at 10 µM,"HL-60(TB); Homo sapiens, 10 μM single dose, HL-60(TB) (leukaemia), read-out: growth inhibition percent (GI%)",> 100%
same,TGI,HL-60(TB); five-dose,24.00 µM
same,GI%,SNB-75; 10 μM one-dose,80.66%
same,inhibition at 10 µM,"SNB-75; Homo sapiens, 10 μM single dose, SNB-75 (CNS cancer), read-out: growth inhibition percent (GI%)",80.7%
same,GI50,"LOX IMVI; Homo sapiens, LOX IMVI, five-dose",2.28 µM
same,CC50,"LOX IMVI; Homo sapiens, LOX IMVI, five-dose, read-out: LC50 (the source's name)",22.7 µM
same,inhibition at 10 µM,"LOX IMVI; Homo sapiens, 10 μM single dose, LOX IMVI (melanoma), read-out: growth inhibition percent (GI%)",> 100%
same,TGI,LOX IMVI; five-dose,5.69 µM
same,GI%,PC-3; 10 μM one-dose,88.74%
same,GI50,"PC-3; Homo sapiens, PC-3, five-dose",12.5 µM
same,CC50,"PC-3; Homo sapiens, PC-3, five-dose, read-out: LC50 (the source's name)",61.3 µM
same,inhibition at 10 µM,"PC-3; Homo sapiens, 10 μM single dose, PC-3 (prostate cancer), read-out: growth inhibition percent (GI%)",88.7%
same,TGI,PC-3; five-dose,27.70 µM
same,GI50,"A498; Homo sapiens, A498, five-dose",15.3 µM
same,LC50,"A498; Homo sapiens, A498, five-dose",58.2 µM
same,inhibition at 10 µM,"A498; Homo sapiens, 10 μM single dose, A498 (renal cancer), read-out: growth inhibition percent (GI%)",< 10%
same,TGI,A498; five-dose,29.80 µM
same,GI%,CCRF-CEM; 10 μM one-dose,95.51%
same,GI50,"CCRF-CEM; Homo sapiens, CCRF-CEM, five-dose",14.9 µM
same,CC50,"CCRF-CEM; Homo sapiens, CCRF-CEM, five-dose, read-out: LC50 (the source's name)",76 µM
same,inhibition at 10 µM,"CCRF-CEM; Homo sapiens, 10 μM single dose, CCRF-CEM (leukaemia), read-out: growth inhibition percent (GI%)",95.5%
same,TGI,CCRF-CEM; five-dose,33.60 µM
same,GI50,"HCC-2998; Homo sapiens, HCC 2998, five-dose",2.53 µM
same,CC50,"HCC-2998; Homo sapiens, HCC 2998, five-dose, read-out: LC50 (the source's name)",6.27 µM
same,inhibition at 10 µM,"HCC-2998; Homo sapiens, 10 μM single dose, HCC-2998 (colon cancer), read-out: growth inhibition percent (GI%)",> 100%
same,TGI,HCC-2998; five-dose,3.22 µM
same,GI50,"SNB-19; Homo sapiens, SNB-19, five-dose",14.9 µM
same,CC50,"SNB-19; Homo sapiens, SNB-19, five-dose, read-out: LC50 (the source's name)",58.1 µM
same,inhibition at 10 µM,"SNB-19; Homo sapiens, 10 μM single dose, SNB-19 (CNS cancer), read-out: growth inhibition percent (GI%)",50.4%
same,TGI,SNB-19; five-dose,29.40 µM
same,GI50,"ACHN; Homo sapiens, ACHN, five-dose",15 µM
same,LC50,"ACHN; Homo sapiens, ACHN, five-dose",54.5 µM
same,inhibition at 10 µM,"ACHN; Homo sapiens, 10 μM single dose, ACHN (renal cancer), read-out: growth inhibition percent (GI%)",> 100%
same,TGI,ACHN; five-dose,28.60 µM
same,GI%,UO-31; 10 μM one-dose,91.74%
same,inhibition at 10 µM,"UO-31; Homo sapiens, 10 μM single dose, UO-31 (renal cancer), read-out: growth inhibition percent (GI%)",91.7%
same,CC50,"RXF 393; Homo sapiens, RXF 393, five-dose, read-out: LC50 (the source's name)",51.5 µM
same,inhibition at 10 µM,"RXF 393; Homo sapiens, 10 μM single dose, RXF 393 (renal cancer), read-out: growth inhibition percent (GI%)",> 100%
same,TGI,RXF 393; five-dose,21.40 µM
same,inhibition at 10 µM,"IGROV1; Homo sapiens, IGROV-1, 10 μM single dose, IGROV1 (ovarian cancer), read-out: growth inhibition percent (GI%)",> 100%
same,GI50,"IGROV1; Homo sapiens, IGROV-1, five-dose",15.6 µM
same,CC50,"IGROV1; Homo sapiens, IGROV-1, five-dose, read-out: LC50 (the source's name)",56.8 µM
same,TGI,IGROV1; five-dose,29.80 µM
